Converted amounts (≈) assume the structure as drawn.
Tested on: Bacillus subtilis
Assay: Antibacterial activity against Bacillus subtilis by serial dilution method
Assay type: functional

MIC [mg/L] | Structure (SMILES)
> 128 | c1cc(-c2nnc3sc(-c4ccncc4)nn23)nc(-c2nnc3sc(-c4ccncc4)nn23)c1
64 (≈ 117 µM) | Clc1ccc(-c2nn3c(-c4cccc(-c5nnc6sc(-c7ccc(Cl)cc7)nn56)n4)nnc3s2)cc1
> 128 | c1ccc(-c2nn3c(-c4cccc(-c5nnc6sc(-c7ccccc7)nn56)n4)nnc3s2)cc1
64 (≈ 87.5 µM) | Ic1cccc(-c2nn3c(-c4cccc(-c5nnc6sc(-c7cccc(I)c7)nn56)n4)nnc3s2)c1
64 (≈ 119 µM) | COc1ccc(-c2nn3c(-c4cccc(-c5nnc6sc(-c7ccc(OC)cc7)nn56)n4)nnc3s2)cc1
128 (≈ 279 µM) | c1cc(-c2nnc3sc(-c4ccco4)nn23)nc(-c2nnc3sc(-c4ccco4)nn23)c1
128 (≈ 225 µM) | O=[N+]([O-])c1ccc(-c2nn3c(-c4cccc(-c5nnc6sc(-c7ccc([N+](=O)[O-])cc7)nn56)n4)nnc3s2)cc1

Tested on: Bacillus subtilis
Assay: Antibacterial activity against Bacillus subtilis at 250 ug/tube after 24 hrs by cylinder-plate method
Assay type: functional

Structure (SMILES) | diameter of the inhibition zone (DIZ) [mm]
c1cc(-c2nnc3sc(-c4ccncc4)nn23)nc(-c2nnc3sc(-c4ccncc4)nn23)c1 | 10
Clc1ccc(-c2nn3c(-c4cccc(-c5nnc6sc(-c7ccc(Cl)cc7)nn56)n4)nnc3s2)cc1 | 14
c1ccc(-c2nn3c(-c4cccc(-c5nnc6sc(-c7ccccc7)nn56)n4)nnc3s2)cc1 | 10
Ic1cccc(-c2nn3c(-c4cccc(-c5nnc6sc(-c7cccc(I)c7)nn56)n4)nnc3s2)c1 | 14
COc1ccc(-c2nn3c(-c4cccc(-c5nnc6sc(-c7ccc(OC)cc7)nn56)n4)nnc3s2)cc1 | 14
c1cc(-c2nnc3sc(-c4ccco4)nn23)nc(-c2nnc3sc(-c4ccco4)nn23)c1 | 12
O=[N+]([O-])c1ccc(-c2nn3c(-c4cccc(-c5nnc6sc(-c7ccc([N+](=O)[O-])cc7)nn56)n4)nnc3s2)cc1 | 11

Tested on: Escherichia coli
Assay: Antibacterial activity against Escherichia coli by serial dilution method

MIC [mg/L] | Structure (SMILES)
64 (≈ 133 µM) | c1cc(-c2nnc3sc(-c4ccncc4)nn23)nc(-c2nnc3sc(-c4ccncc4)nn23)c1
32 (≈ 58.3 µM) | Clc1ccc(-c2nn3c(-c4cccc(-c5nnc6sc(-c7ccc(Cl)cc7)nn56)n4)nnc3s2)cc1
128 (≈ 267 µM) | c1ccc(-c2nn3c(-c4cccc(-c5nnc6sc(-c7ccccc7)nn56)n4)nnc3s2)cc1
32 (≈ 43.8 µM) | Ic1cccc(-c2nn3c(-c4cccc(-c5nnc6sc(-c7cccc(I)c7)nn56)n4)nnc3s2)c1
32 (≈ 59.3 µM) | COc1ccc(-c2nn3c(-c4cccc(-c5nnc6sc(-c7ccc(OC)cc7)nn56)n4)nnc3s2)cc1
64 (≈ 139 µM) | c1cc(-c2nnc3sc(-c4ccco4)nn23)nc(-c2nnc3sc(-c4ccco4)nn23)c1
64 (≈ 112 µM) | O=[N+]([O-])c1ccc(-c2nn3c(-c4cccc(-c5nnc6sc(-c7ccc([N+](=O)[O-])cc7)nn56)n4)nnc3s2)cc1

Tested on: Streptococcus pneumoniae
Assay: Antibacterial activity against Streptococcus pneumoniae at 250 ug/tube after 24 hrs by cylinder-plate method
Assay type: functional

Structure (SMILES) | diameter of the inhibition zone (DIZ) [mm]
c1cc(-c2nnc3sc(-c4ccncc4)nn23)nc(-c2nnc3sc(-c4ccncc4)nn23)c1 | 13
Clc1ccc(-c2nn3c(-c4cccc(-c5nnc6sc(-c7ccc(Cl)cc7)nn56)n4)nnc3s2)cc1 | 16
c1ccc(-c2nn3c(-c4cccc(-c5nnc6sc(-c7ccccc7)nn56)n4)nnc3s2)cc1 | 12
Ic1cccc(-c2nn3c(-c4cccc(-c5nnc6sc(-c7cccc(I)c7)nn56)n4)nnc3s2)c1 | 14
COc1ccc(-c2nn3c(-c4cccc(-c5nnc6sc(-c7ccc(OC)cc7)nn56)n4)nnc3s2)cc1 | 14
c1cc(-c2nnc3sc(-c4ccco4)nn23)nc(-c2nnc3sc(-c4ccco4)nn23)c1 | 12
O=[N+]([O-])c1ccc(-c2nn3c(-c4cccc(-c5nnc6sc(-c7ccc([N+](=O)[O-])cc7)nn56)n4)nnc3s2)cc1 | 15

Tested on: Pseudomonas aeruginosa
Assay: Antibacterial activity against Pseudomonas aeruginosa by serial dilution method
Assay type: functional

MIC [mg/L] | Structure (SMILES)
128 (≈ 266 µM) | c1cc(-c2nnc3sc(-c4ccncc4)nn23)nc(-c2nnc3sc(-c4ccncc4)nn23)c1
32 (≈ 58.3 µM) | Clc1ccc(-c2nn3c(-c4cccc(-c5nnc6sc(-c7ccc(Cl)cc7)nn56)n4)nnc3s2)cc1
> 128 | c1ccc(-c2nn3c(-c4cccc(-c5nnc6sc(-c7ccccc7)nn56)n4)nnc3s2)cc1
64 (≈ 87.5 µM) | Ic1cccc(-c2nn3c(-c4cccc(-c5nnc6sc(-c7cccc(I)c7)nn56)n4)nnc3s2)c1
128 (≈ 237 µM) | COc1ccc(-c2nn3c(-c4cccc(-c5nnc6sc(-c7ccc(OC)cc7)nn56)n4)nnc3s2)cc1
32 (≈ 69.6 µM) | c1cc(-c2nnc3sc(-c4ccco4)nn23)nc(-c2nnc3sc(-c4ccco4)nn23)c1
128 (≈ 225 µM) | O=[N+]([O-])c1ccc(-c2nn3c(-c4cccc(-c5nnc6sc(-c7ccc([N+](=O)[O-])cc7)nn56)n4)nnc3s2)cc1

Tested on: Staphylococcus aureus
Assay: Antibacterial activity against Staphylococcus aureus at 250 ug/tube after 24 hrs by cylinder-plate method
Assay type: functional

Structure (SMILES) | diameter of the inhibition zone (DIZ) [mm]
c1cc(-c2nnc3sc(-c4ccncc4)nn23)nc(-c2nnc3sc(-c4ccncc4)nn23)c1 | 12
Clc1ccc(-c2nn3c(-c4cccc(-c5nnc6sc(-c7ccc(Cl)cc7)nn56)n4)nnc3s2)cc1 | 15
c1ccc(-c2nn3c(-c4cccc(-c5nnc6sc(-c7ccccc7)nn56)n4)nnc3s2)cc1 | 12
Ic1cccc(-c2nn3c(-c4cccc(-c5nnc6sc(-c7cccc(I)c7)nn56)n4)nnc3s2)c1 | 16
COc1ccc(-c2nn3c(-c4cccc(-c5nnc6sc(-c7ccc(OC)cc7)nn56)n4)nnc3s2)cc1 | 14
c1cc(-c2nnc3sc(-c4ccco4)nn23)nc(-c2nnc3sc(-c4ccco4)nn23)c1 | 14
O=[N+]([O-])c1ccc(-c2nn3c(-c4cccc(-c5nnc6sc(-c7ccc([N+](=O)[O-])cc7)nn56)n4)nnc3s2)cc1 | 13

Tested on: Escherichia coli
Assay: Antibacterial activity against Escherichia coli at 250 ug/tube after 24 hrs by cylinder-plate method
Assay type: functional

Structure (SMILES) | diameter of the inhibition zone (DIZ) [mm]
c1cc(-c2nnc3sc(-c4ccncc4)nn23)nc(-c2nnc3sc(-c4ccncc4)nn23)c1 | 14
Clc1ccc(-c2nn3c(-c4cccc(-c5nnc6sc(-c7ccc(Cl)cc7)nn56)n4)nnc3s2)cc1 | 17
c1ccc(-c2nn3c(-c4cccc(-c5nnc6sc(-c7ccccc7)nn56)n4)nnc3s2)cc1 | 12
Ic1cccc(-c2nn3c(-c4cccc(-c5nnc6sc(-c7cccc(I)c7)nn56)n4)nnc3s2)c1 | 18
COc1ccc(-c2nn3c(-c4cccc(-c5nnc6sc(-c7ccc(OC)cc7)nn56)n4)nnc3s2)cc1 | 16
c1cc(-c2nnc3sc(-c4ccco4)nn23)nc(-c2nnc3sc(-c4ccco4)nn23)c1 | 15
O=[N+]([O-])c1ccc(-c2nn3c(-c4cccc(-c5nnc6sc(-c7ccc([N+](=O)[O-])cc7)nn56)n4)nnc3s2)cc1 | 15

Tested on: Pseudomonas aeruginosa
Assay: Antibacterial activity against Pseudomonas aeruginosa at 250 ug/tube after 24 hrs by cylinder-plate method
Assay type: functional

Structure (SMILES) | diameter of the inhibition zone (DIZ) [mm]
c1cc(-c2nnc3sc(-c4ccncc4)nn23)nc(-c2nnc3sc(-c4ccncc4)nn23)c1 | 13
Clc1ccc(-c2nn3c(-c4cccc(-c5nnc6sc(-c7ccc(Cl)cc7)nn56)n4)nnc3s2)cc1 | 15
c1ccc(-c2nn3c(-c4cccc(-c5nnc6sc(-c7ccccc7)nn56)n4)nnc3s2)cc1 | 10
Ic1cccc(-c2nn3c(-c4cccc(-c5nnc6sc(-c7cccc(I)c7)nn56)n4)nnc3s2)c1 | 15
COc1ccc(-c2nn3c(-c4cccc(-c5nnc6sc(-c7ccc(OC)cc7)nn56)n4)nnc3s2)cc1 | 12
c1cc(-c2nnc3sc(-c4ccco4)nn23)nc(-c2nnc3sc(-c4ccco4)nn23)c1 | 15
O=[N+]([O-])c1ccc(-c2nn3c(-c4cccc(-c5nnc6sc(-c7ccc([N+](=O)[O-])cc7)nn56)n4)nnc3s2)cc1 | 12

Tested on: Streptococcus pneumoniae
Assay: Antibacterial activity against Streptococcus pneumoniae by serial dilution method
Assay type: functional

MIC [mg/L] | Structure (SMILES)
128 (≈ 266 µM) | c1cc(-c2nnc3sc(-c4ccncc4)nn23)nc(-c2nnc3sc(-c4ccncc4)nn23)c1
32 (≈ 58.3 µM) | Clc1ccc(-c2nn3c(-c4cccc(-c5nnc6sc(-c7ccc(Cl)cc7)nn56)n4)nnc3s2)cc1
128 (≈ 267 µM) | c1ccc(-c2nn3c(-c4cccc(-c5nnc6sc(-c7ccccc7)nn56)n4)nnc3s2)cc1
64 (≈ 87.5 µM) | Ic1cccc(-c2nn3c(-c4cccc(-c5nnc6sc(-c7cccc(I)c7)nn56)n4)nnc3s2)c1
64 (≈ 119 µM) | COc1ccc(-c2nn3c(-c4cccc(-c5nnc6sc(-c7ccc(OC)cc7)nn56)n4)nnc3s2)cc1
128 (≈ 279 µM) | c1cc(-c2nnc3sc(-c4ccco4)nn23)nc(-c2nnc3sc(-c4ccco4)nn23)c1
64 (≈ 112 µM) | O=[N+]([O-])c1ccc(-c2nn3c(-c4cccc(-c5nnc6sc(-c7ccc([N+](=O)[O-])cc7)nn56)n4)nnc3s2)cc1

Tested on: Staphylococcus aureus
Assay: Antibacterial activity against Staphylococcus aureus by serial dilution method
Assay type: functional

MIC [mg/L] | Structure (SMILES)
128 (≈ 266 µM) | c1cc(-c2nnc3sc(-c4ccncc4)nn23)nc(-c2nnc3sc(-c4ccncc4)nn23)c1
32 (≈ 58.3 µM) | Clc1ccc(-c2nn3c(-c4cccc(-c5nnc6sc(-c7ccc(Cl)cc7)nn56)n4)nnc3s2)cc1
128 (≈ 267 µM) | c1ccc(-c2nn3c(-c4cccc(-c5nnc6sc(-c7ccccc7)nn56)n4)nnc3s2)cc1
32 (≈ 43.8 µM) | Ic1cccc(-c2nn3c(-c4cccc(-c5nnc6sc(-c7cccc(I)c7)nn56)n4)nnc3s2)c1
64 (≈ 119 µM) | COc1ccc(-c2nn3c(-c4cccc(-c5nnc6sc(-c7ccc(OC)cc7)nn56)n4)nnc3s2)cc1
64 (≈ 139 µM) | c1cc(-c2nnc3sc(-c4ccco4)nn23)nc(-c2nnc3sc(-c4ccco4)nn23)c1
128 (≈ 225 µM) | O=[N+]([O-])c1ccc(-c2nn3c(-c4cccc(-c5nnc6sc(-c7ccc([N+](=O)[O-])cc7)nn56)n4)nnc3s2)cc1

— ChEMBL document CHEMBL2429777, “Synthesis and antibacterial activity evaluation of 2,6-bis(6-substituted-1,2,4-triazolo[3,4-b][1,3,4]thiadiazol-3-yl)pyridine derivatives” (2013)
